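Assay format: 96-well plates, 48-hour exposure. At the TGI there is no net growth.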
Tests used:
Assay in all cases: NCI tumour cell line growth inhibition, 48 h
A498 renal = system: A498 renal
A549 NSCLC = system: A549 NSCLC
CAKI-1 renal = system: CAKI-1 renal
CCRF-CEM leukemia = system: CCRF-CEM leukemia
COLO 205 colon = system: COLO 205 colon
DLD-1 colon = system: DLD-1 colon
DMS 114 small cell lung = system: DMS 114 small cell lung
DMS 273 small cell lung = system: DMS 273 small cell lung
EKVX NSCLC = system: EKVX NSCLC
HCC-2998 colon = system: HCC-2998 colon
HCT-116 colon = system: HCT-116 colon
HCT-15 colon = system: HCT-15 colon
HL-60(TB) leukemia = system: HL-60(TB) leukemia
HOP-18 NSCLC = system: HOP-18 NSCLC
HOP-62 NSCLC = system: HOP-62 NSCLC
HOP-92 NSCLC = system: HOP-92 NSCLC
HT29 colon = system: HT29 colon
IGROV1 ovarian = system: IGROV1 ovarian
KM12 colon = system: KM12 colon
KM20L2 colon = system: KM20L2 colon
LOX IMVI melanoma = system: LOX IMVI melanoma
M19-MEL melanoma = system: M19-MEL melanoma
MALME-3M melanoma = system: MALME-3M melanoma
MCF7 breast = system: MCF7 breast
MOLT-4 leukemia = system: MOLT-4 leukemia
NCI-H226 lung = system: NCI-H226 lung
NCI-H23 lung = system: NCI-H23 lung
NCI-H460 lung = system: NCI-H460 lung
NCI-H522 lung = system: NCI-H522 lung
NCI/ADR-RES ovarian = system: NCI/ADR-RES ovarian
OVCAR-3 ovarian = system: OVCAR-3 ovarian
OVCAR-4 ovarian = system: OVCAR-4 ovarian
OVCAR-5 ovarian = system: OVCAR-5 ovarian
OVCAR-8 ovarian = system: OVCAR-8 ovarian
P388 leukemia = system: P388 leukemia
P388/ADR leukemia = system: P388/ADR leukemia
RPMI-8226 leukemia = system: RPMI-8226 leukemia
RXF 393 renal = system: RXF 393 renal
SF-268 CNS = system: SF-268 CNS
SF-295 CNS = system: SF-295 CNS
SF-539 CNS = system: SF-539 CNS
SK-MEL-2 melanoma = system: SK-MEL-2 melanoma
SK-MEL-28 melanoma = system: SK-MEL-28 melanoma
SK-MEL-5 melanoma = system: SK-MEL-5 melanoma
SK-OV-3 ovarian = system: SK-OV-3 ovarian
SN12C renal = system: SN12C renal
SN12K1 renal = system: SN12K1 renal
SNB-19 CNS = system: SNB-19 CNS
SNB-75 CNS = system: SNB-75 CNS
SNB-78 CNS = system: SNB-78 CNS
SW-620 colon = system: SW-620 colon
U251 CNS = system: U251 CNS
UACC-257 melanoma = system: UACC-257 melanoma
UACC-62 melanoma = system: UACC-62 melanoma
UO-31 renal = system: UO-31 renal
XF 498 CNS = system: XF 498 CNS
786-0 renal = system: 786-0 renal
ACHN renal = system: ACHN renal
K-562 leukemia = system: K-562 leukemia
LXFL 529 NSCLC = system: LXFL 529 NSCLC
M14 melanoma = system: M14 melanoma
RXF-631 renal = system: RXF-631 renal
SR leukemia = system: SR leukemia
TK-10 renal = system: TK-10 renal

With `Nc1nc(N)nc(-c2ccccc2NS(=O)(=O)c2ccc([N+](=O)[O-])cc2)n1` as the compound, how does the TGI (A498 renal) read?
Its TGI is > 100 µM.

And the TGI (A549 NSCLC)?
Its TGI is > 100 µM.

And the TGI (CAKI-1 renal)?
The TGI was > 34.6 µM.

And the TGI (CCRF-CEM leukemia)?
Its TGI is > 100 µM.

And the TGI (COLO 205 colon)?
Its TGI is > 31.6 µM.

And the TGI (DLD-1 colon)?
Its TGI is > 100 µM.

And the TGI (DMS 114 small cell lung)?
Its TGI is > 100 µM.

What about the TGI (DMS 273 small cell lung) of the same compound?
The TGI was > 100 µM.

What about the TGI (EKVX NSCLC) of the same compound?
The TGI was > 100 µM.

What about the TGI (HCC-2998 colon) of the same compound?
Its TGI is > 100 µM.

And the TGI (HCT-116 colon)?
Its TGI is > 100 µM.

What about the TGI (HCT-15 colon) of the same compound?
The TGI was > 100 µM.

What about the TGI (HL-60(TB) leukemia) of the same compound?
Its TGI is 61.5 µM.

What about the TGI (HOP-18 NSCLC) of the same compound?
The TGI was > 100 µM.

And the TGI (HOP-62 NSCLC)?
Its TGI is > 100 µM.

And the TGI (HOP-92 NSCLC)?
Its TGI is > 100 µM.

And the TGI (HT29 colon)?
Its TGI is > 100 µM.

And the TGI (IGROV1 ovarian)?
Its TGI is > 100 µM.

And the TGI (KM12 colon)?
Its TGI is > 100 µM.

And the TGI (KM20L2 colon)?
Its TGI is > 100 µM.

And the TGI (LOX IMVI melanoma)?
The TGI was > 100 µM.

And the TGI (M19-MEL melanoma)?
Its TGI is > 100 µM.

And the TGI (MALME-3M melanoma)?
The TGI was > 100 µM.

What about the TGI (MCF7 breast) of the same compound?
Its TGI is > 100 µM.

And the TGI (MOLT-4 leukemia)?
The TGI was > 100 µM.

And the TGI (NCI-H226 lung)?
The TGI was > 100 µM.

And the TGI (NCI-H23 lung)?
The TGI was > 100 µM.

What about the TGI (NCI-H460 lung) of the same compound?
The TGI was > 100 µM.

And the TGI (NCI-H522 lung)?
Its TGI is > 100 µM.

What about the TGI (NCI/ADR-RES ovarian) of the same compound?
The TGI was > 100 µM.

And the TGI (OVCAR-3 ovarian)?
The TGI was > 100 µM.

And the TGI (OVCAR-4 ovarian)?
Its TGI is > 100 µM.

What about the TGI (OVCAR-5 ovarian) of the same compound?
Its TGI is > 100 µM.

And the TGI (OVCAR-8 ovarian)?
Its TGI is > 100 µM.

What about the TGI (P388 leukemia) of the same compound?
Its TGI is > 100 µM.

And the TGI (P388/ADR leukemia)?
Its TGI is > 100 µM.

What about the TGI (RPMI-8226 leukemia) of the same compound?
The TGI was > 100 µM.

And the TGI (RXF 393 renal)?
Its TGI is > 100 µM.

What about the TGI (SF-268 CNS) of the same compound?
The TGI was > 100 µM.

And the TGI (SF-295 CNS)?
The TGI was > 100 µM.

And the TGI (SF-539 CNS)?
The TGI was > 100 µM.

And the TGI (SK-MEL-2 melanoma)?
Its TGI is > 100 µM.

And the TGI (SK-MEL-28 melanoma)?
The TGI was > 100 µM.

What about the TGI (SK-MEL-5 melanoma) of the same compound?
The TGI was > 84.8 µM.

And the TGI (SK-OV-3 ovarian)?
The TGI was > 100 µM.

What about the TGI (SN12C renal) of the same compound?
The TGI was > 100 µM.

And the TGI (SN12K1 renal)?
The TGI was > 100 µM.

What about the TGI (SNB-19 CNS) of the same compound?
The TGI was > 100 µM.

What about the TGI (SNB-75 CNS) of the same compound?
Its TGI is > 90.6 µM.

And the TGI (SNB-78 CNS)?
Its TGI is > 100 µM.

What about the TGI (SW-620 colon) of the same compound?
The TGI was > 100 µM.

What about the TGI (U251 CNS) of the same compound?
Its TGI is > 100 µM.

And the TGI (UACC-257 melanoma)?
Its TGI is > 100 µM.

And the TGI (UACC-62 melanoma)?
Its TGI is > 100 µM.

What about the TGI (UO-31 renal) of the same compound?
The TGI was > 100 µM.

What about the TGI (XF 498 CNS) of the same compound?
Its TGI is 63.5 µM.

`CCCCCCCCCCCCCCCCP(=O)(OC)OC` was tested. Which TGI (786-0 renal) did it give?
The TGI was 31.4 µM.

And the TGI (A549 NSCLC)?
Its TGI is 33.4 µM.

And the TGI (ACHN renal)?
Its TGI is 28 µM.

And the TGI (CAKI-1 renal)?
The TGI was 30.5 µM.

And the TGI (CCRF-CEM leukemia)?
Its TGI is 40.1 µM.

What about the TGI (COLO 205 colon) of the same compound?
Its TGI is 30.7 µM.

And the TGI (DLD-1 colon)?
The TGI was 31.4 µM.

What about the TGI (DMS 114 small cell lung) of the same compound?
Its TGI is 30.5 µM.

And the TGI (DMS 273 small cell lung)?
Its TGI is 27.6 µM.

What about the TGI (EKVX NSCLC) of the same compound?
The TGI was 30 µM.

What about the TGI (HCC-2998 colon) of the same compound?
Its TGI is 30.8 µM.

What about the TGI (HCT-116 colon) of the same compound?
The TGI was 33.1 µM.

And the TGI (HCT-15 colon)?
The TGI was 30.2 µM.

And the TGI (HL-60(TB) leukemia)?
Its TGI is 27.3 µM.

What about the TGI (HOP-18 NSCLC) of the same compound?
The TGI was 28.6 µM.

What about the TGI (HOP-62 NSCLC) of the same compound?
The TGI was 24.3 µM.

What about the TGI (HOP-92 NSCLC) of the same compound?
Its TGI is 35.3 µM.

What about the TGI (HT29 colon) of the same compound?
Its TGI is 31.6 µM.

What about the TGI (IGROV1 ovarian) of the same compound?
Its TGI is 34.6 µM.

And the TGI (K-562 leukemia)?
Its TGI is 44.8 µM.

What about the TGI (KM12 colon) of the same compound?
The TGI was 32.2 µM.

What about the TGI (KM20L2 colon) of the same compound?
Its TGI is 37.4 µM.

What about the TGI (LOX IMVI melanoma) of the same compound?
The TGI was 31.9 µM.

What about the TGI (LXFL 529 NSCLC) of the same compound?
Its TGI is 29.3 µM.

What about the TGI (M14 melanoma) of the same compound?
Its TGI is 30.2 µM.

And the TGI (M19-MEL melanoma)?
Its TGI is 30.3 µM.

What about the TGI (MALME-3M melanoma) of the same compound?
The TGI was 32.7 µM.

What about the TGI (MOLT-4 leukemia) of the same compound?
The TGI was 32.3 µM.

And the TGI (NCI-H226 lung)?
Its TGI is 33.2 µM.

What about the TGI (NCI-H23 lung) of the same compound?
The TGI was 31.8 µM.

What about the TGI (NCI-H460 lung) of the same compound?
The TGI was 31.1 µM.

What about the TGI (NCI-H522 lung) of the same compound?
Its TGI is 26.8 µM.

And the TGI (OVCAR-3 ovarian)?
Its TGI is 31.9 µM.

What about the TGI (OVCAR-4 ovarian) of the same compound?
The TGI was 35.9 µM.

And the TGI (OVCAR-5 ovarian)?
Its TGI is 27.1 µM.

And the TGI (OVCAR-8 ovarian)?
Its TGI is 30.9 µM.

What about the TGI (RPMI-8226 leukemia) of the same compound?
The TGI was 35 µM.

What about the TGI (RXF 393 renal) of the same compound?
Its TGI is 34.4 µM.

What about the TGI (RXF-631 renal) of the same compound?
The TGI was 31.3 µM.

And the TGI (SF-295 CNS)?
Its TGI is 32.4 µM.

And the TGI (SF-539 CNS)?
Its TGI is 34.9 µM.

What about the TGI (SK-MEL-2 melanoma) of the same compound?
Its TGI is 30 µM.

What about the TGI (SK-MEL-28 melanoma) of the same compound?
Its TGI is 31.6 µM.

What about the TGI (SK-MEL-5 melanoma) of the same compound?
The TGI was 30.7 µM.

What about the TGI (SK-OV-3 ovarian) of the same compound?
Its TGI is 29 µM.

And the TGI (SN12C renal)?
Its TGI is 31.3 µM.

What about the TGI (SNB-19 CNS) of the same compound?
The TGI was 28.6 µM.

What about the TGI (SNB-75 CNS) of the same compound?
The TGI was 32 µM.

What about the TGI (SNB-78 CNS) of the same compound?
Its TGI is 34.1 µM.

What about the TGI (SR leukemia) of the same compound?
Its TGI is 37.9 µM.

What about the TGI (SW-620 colon) of the same compound?
The TGI was 28.2 µM.

What about the TGI (TK-10 renal) of the same compound?
Its TGI is 31 µM.

And the TGI (U251 CNS)?
The TGI was 32.4 µM.

And the TGI (UACC-257 melanoma)?
The TGI was 31.8 µM.

And the TGI (UACC-62 melanoma)?
The TGI was 27.8 µM.

And the TGI (UO-31 renal)?
The TGI was 24.5 µM.

What about the TGI (XF 498 CNS) of the same compound?
The TGI was 25.8 µM.
